Like-named read-outs stand apart in the source and are kept apart here.

For the assay, the system named is oreillette gauche du cobaye isolée et stimulée électriquement. As to the kind of experiment: In vitro inotropic (cardiotonic) activity: contraction force of isolated, electrically stimulated guinea pig left atrium. It counts as cell-based. The conditions noted are these: for minimal effective concentration: read-out: Cardiotonique (concentration minimale efficace en ug/ml produisant une réponse significative). From the text: Les composés (I) selon l'invention ont été trouvés peu toxiques et n'ont pas ou peu d'effet sur le système nerveux central. Par contre, ils se sont montrés actifs dans les test in vitro d'activité inotropique (cardiotonique). Le Tableau (IV) ci-dessous donne les résultats de ces essais.
Theophylline 15 Amrinone ^2) 100 Milrinone ^2) 0,5 IBMX^3) 0,5 • 1) Mesure de la force de contraction de l'oreillette gauche du cobaye isolée et stimulée électriquement, selon Erjavek, F. and Adamic, S., Arch. Int. Pharmacodyn. 155: 251, 1965. Une réponse est considérée comme significative lorsque la force de contraction de base est augmentée de plus de 40 %. • 2) Médicament cardiotonique selon l'état de la technique • 3) 1-méthyl-3-isobutylxanthine

Setting [1] is: significant response = basal contraction force increased by more than 40 %, isolated left atrium of guinea pig, electrically stimulated.

With `Cn1c(=O)c2[nH]cnc2n(C)c1=O` [Theophylline, reference compound], the minimal effective concentration under setting [1] was found to be 15 µg/mL. Turning to `CCCn1c(=O)n(CCCCCO)c(=O)c2[nH]cnc21` [compound 26], under setting [1], the minimal effective concentration amounted to 0.2 µg/mL. Turning to `CCCCn1c(=O)n(CCCCO)c(=O)c2[nH]cnc21` [compound 21], the minimal effective concentration under setting [1] turned out to be 2 µg/mL. On to `Cc1nc2c([nH]1)c(=O)n(CCCO)c(=O)n2CC(C)C` [compound 12], for which the minimal effective concentration under setting [1] amounted to 0.5 µg/mL. The same measure, in the same setting: the result for `Cn1c(=O)n(CCCCCO)c(=O)c2[nH]cnc21` [compound 25] reads 6.7 µg/mL; that for `CCCn1c(=O)n(CCC(C)O)c(=O)c2[nH]cnc21` (stereo not shown) [compound 16], 0.1 µg/mL. Regarding `CCCn1c(=O)n(CCCCCO)c(=O)c2[nH]c(C)nc21` [Xanthine No. 27, 1-(5-Hydroxypentyl)-3-propyl-8-methylxanthine], the “Cardiotonique (concentration minimale efficace en ug/ml produisant une réponse significative)” value (significant response = basal contraction force increased by more than 40 %, isolated left atrium of guinea pig, electrically stimulated, listed as 1) was 1 µg/mL. Take `CC(C)Cn1c(=O)n(CCCO)c(=O)c2[nH]cnc21` [compound 11]: the minimal effective concentration under setting [1] is 0.7 µg/mL. Same read-out and setting: next, `CC(C)Cn1c(=O)n(CCC(C)O)c(=O)c2[nH]cnc21` (stereo not shown) [compound 17]: 1.3 µg/mL; `CC(C)Cn1c(=O)n(C)c(=O)c2[nH]cnc21` [IBMX, 1-méthyl-3-isobutylxanthine, reference compound]: 0.5 µg/mL.

Take `Cc1[nH]c(=O)c(C#N)cc1-c1ccncc1` [Milrinone, reference compound]: the minimal effective concentration is 0.5 µg/mL. For the compound `CCCn1c(=O)n(CCCCO)c(=O)c2[nH]c(C)nc21` [compound 20], the minimal effective concentration under setting [1] worked out at 0.7 µg/mL. The same measure, in the same setting: next, `CCCn1c(=O)n(CCCC(C)O)c(=O)c2[nH]cnc21` (stereo not shown) [compound 24]: 0.7 µg/mL; `Nc1cc(-c2ccncc2)c[nH]c1=O` [Amrinone, reference compound]: 100 µg/mL; `CCCCn1c(=O)n(CC(C)O)c(=O)c2[nH]cnc21` (stereo not shown) [Xanthine No. 6, 1-(2-Hydroxypropyl)-3-butylxanthine]: 3.3 µg/mL.

As to `CCn1c(=O)n(CCCCO)c(=O)c2[nH]cnc21` [compound 18], the minimal effective concentration under setting [1] was 3.3 µg/mL. With `CC(C)Cn1c(=O)n(CCC(C)O)c(=O)c2[nH]cnc21` (stereo not shown) [Xanthine No. 17, 1-(3-Hydroxybutyl)-3-isobutylxanthine], for the setting “significant response = basal contraction force increased by more than 40 %, isolated left atrium of guinea pig, electrically stimulated, listed as 3”, the “Cardiotonique (concentration minimale efficace en ug/ml produisant une réponse significative)” value was 2 µg/mL.

`CCCn1c(=O)n(CCCO)c(=O)c2[nH]c(CC)nc21` [compound 9]: under setting [1], the minimal effective concentration is 2 µg/mL.

As for `CCCn1c(=O)n(CCCO)c(=O)c2[nH]cnc21` [compound 7], the minimal effective concentration under setting [1] was found to be 1.3 µg/mL. With `CCCn1c(=O)n(CC(C)O)c(=O)c2[nH]c(C)nc21` (stereo not shown) [compound 5], under setting [1], the minimal effective concentration amounted to 0.6 µg/mL. Regarding `CCCn1c(=O)n(CCCCCO)c(=O)c2[nH]c(C)nc21` [compound 27], the “Cardiotonique (concentration minimale efficace en ug/ml produisant une réponse significative)” value under setting [1] is reported as 0,3 ug/ml. On to `CCCCn1c(=O)n(CCCO)c(=O)c2[nH]cnc21` [compound 10], for which the minimal effective concentration under setting [1] is 0.4 µg/mL.

For the compound `CCCCn1c(=O)n(CC(C)O)c(=O)c2[nH]cnc21` (stereo not shown) [compound 6], the “Cardiotonique (concentration minimale efficace en ug/ml produisant une réponse significative)” value under setting [1] is reported as 4,2 ug/ml.

Regarding `CCCn1c(=O)n(CCCCO)c(=O)c2[nH]cnc21` [compound 19], the minimal effective concentration under setting [1] stood at 0.4 µg/mL. The same measure, in the same setting: the result for `CC(O)CCn1c(=O)c2[nH]cnc2n(C)c1=O` (stereo not shown) [compound 13] reads 50 µg/mL. Still for that read-out and setting: next, `Cc1nc2c([nH]1)c(=O)n(CCCCO)c(=O)n2CC(C)C` [compound 22]: 25 µg/mL. In the case of `CCCCn1c(=O)n(CCCCO)c(=O)c2[nH]cnc21` [Xanthine No. 21, 1-(4-Hydroxybutyl)-3-butylxanthine], the “Cardiotonique (concentration minimale efficace en ug/ml produisant une réponse significative)” value (significant response = basal contraction force increased by more than 40 %, isolated left atrium of guinea pig, electrically stimulated, listed as 2) is recorded as 2,5 ug/ml. Regarding `CCCn1c(=O)n(CCCO)c(=O)c2[nH]c(C)nc21` [compound 8], under setting [1], the minimal effective concentration came out at 4.2 µg/mL.

Consider `CC(O)CCCn1c(=O)c2[nH]cnc2n(C)c1=O` (stereo not shown) [compound 23], for which the minimal effective concentration under setting [1] came out at 33.3 µg/mL. Consider `CCn1c(=O)n(CCC(C)O)c(=O)c2[nH]cnc21` (stereo not shown) [compound 14], for which the minimal effective concentration under setting [1] was 0.8 µg/mL.

`CCn1c(=O)n(CCC(C)O)c(=O)c2[nH]c(C)nc21` (stereo not shown) [compound 15]: the minimal effective concentration under setting [1] is 0.6 µg/mL.

The values are drawn from patent publication EP0269841A1, “1-Hydroxyalkyl xanthines, processes for their preparation and medicaments containing them” (SOCIETE DES PRODUITS NESTLE S.A., priority 1986, dated 1988).
